Experimental data from ChEMBL document CHEMBL3525973, “Quantitative prediction of human intestinal glucuronidation effects on intestinal availability of UDP-glucuronosyltransferase substrates using in vitro data” (Drug Metab Dispos, 2012).

How the values were obtained:
[1] = in vitro; settings: human, blood and plasma
Description: Ratio of drug level in blood to plasma in human

[2] = Intrinsic clearance in human intestinal microsomes assessed UGT-mediated glucuronidation clearance
[3] = Apparent permeability by PAMPA method
[4] = Unbound intrinsic clearance in human intestinal microsomes assessed UGT-mediated glucuronidation clearance
[5] = Unbound fraction during UGT-mediated glucuronidation in human intestinal microsomes
[6] = Intrinsic clearance in human intestinal microsomes assessed CYP450-mediated glucuronidation clearance
[7] = biological target: T1, UDP-glucuronosyltransferase 1A8 (Homo sapiens, UniProt Q9HAW9); assay: Activity of human UGT1A8 expressed in insect cells assessed as reduction in compound level after 30 mins; format: ADME; settings: 0.5 h
T1 sequence (Q9HAW9 whole entry): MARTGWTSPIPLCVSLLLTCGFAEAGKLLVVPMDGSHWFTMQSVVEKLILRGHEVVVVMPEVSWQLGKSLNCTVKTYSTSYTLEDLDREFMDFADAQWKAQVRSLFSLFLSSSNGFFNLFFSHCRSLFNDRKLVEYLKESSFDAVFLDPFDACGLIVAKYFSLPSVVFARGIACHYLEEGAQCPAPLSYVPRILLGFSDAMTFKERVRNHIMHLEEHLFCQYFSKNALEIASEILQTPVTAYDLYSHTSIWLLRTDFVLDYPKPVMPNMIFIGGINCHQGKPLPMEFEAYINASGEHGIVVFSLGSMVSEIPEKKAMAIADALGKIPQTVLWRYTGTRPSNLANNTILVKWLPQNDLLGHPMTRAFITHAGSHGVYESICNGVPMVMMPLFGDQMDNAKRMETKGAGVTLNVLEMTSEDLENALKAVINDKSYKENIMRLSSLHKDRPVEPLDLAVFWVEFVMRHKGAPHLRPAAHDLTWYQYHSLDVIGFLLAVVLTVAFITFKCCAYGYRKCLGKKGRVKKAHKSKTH

[8] = biological target: T2, UDP-glucuronosyltransferase 1A10 (Homo sapiens, UniProt Q9HAW8); assay: Activity of human UGT1A10 expressed in insect cells assessed as reduction in compound level after 30 mins; format: ADME; settings: 0.5 h
T2 sequence (Q9HAW8 whole entry): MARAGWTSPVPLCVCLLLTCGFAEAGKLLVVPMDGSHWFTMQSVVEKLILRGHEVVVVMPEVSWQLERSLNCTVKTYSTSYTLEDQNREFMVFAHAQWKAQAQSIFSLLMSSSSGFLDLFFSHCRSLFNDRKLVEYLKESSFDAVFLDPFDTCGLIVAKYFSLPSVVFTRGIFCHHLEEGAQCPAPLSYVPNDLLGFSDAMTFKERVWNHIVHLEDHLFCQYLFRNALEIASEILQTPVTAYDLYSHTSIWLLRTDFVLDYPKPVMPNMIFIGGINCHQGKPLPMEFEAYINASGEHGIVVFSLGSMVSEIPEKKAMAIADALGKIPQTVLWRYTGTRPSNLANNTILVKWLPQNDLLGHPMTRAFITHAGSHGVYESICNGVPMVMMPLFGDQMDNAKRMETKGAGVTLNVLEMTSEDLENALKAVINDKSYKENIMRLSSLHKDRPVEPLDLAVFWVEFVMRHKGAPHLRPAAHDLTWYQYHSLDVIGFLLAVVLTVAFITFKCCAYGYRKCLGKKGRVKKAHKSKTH

[9] = Unbound fraction during CYP4500-mediated metabolism in human intestinal microsomes
[10] = Unbound intrinsic clearance in human intestinal microsomes assessed CYP450-mediated glucuronidation clearance
[11] = biological target: T3, UDP-glucuronosyltransferase 1A9 (Homo sapiens, UniProt O60656); assay: Activity of human UGT1A9 expressed in insect cells assessed as reduction in compound level after 30 mins; format: ADME; settings: 0.5 h
T3 sequence (O60656 whole entry): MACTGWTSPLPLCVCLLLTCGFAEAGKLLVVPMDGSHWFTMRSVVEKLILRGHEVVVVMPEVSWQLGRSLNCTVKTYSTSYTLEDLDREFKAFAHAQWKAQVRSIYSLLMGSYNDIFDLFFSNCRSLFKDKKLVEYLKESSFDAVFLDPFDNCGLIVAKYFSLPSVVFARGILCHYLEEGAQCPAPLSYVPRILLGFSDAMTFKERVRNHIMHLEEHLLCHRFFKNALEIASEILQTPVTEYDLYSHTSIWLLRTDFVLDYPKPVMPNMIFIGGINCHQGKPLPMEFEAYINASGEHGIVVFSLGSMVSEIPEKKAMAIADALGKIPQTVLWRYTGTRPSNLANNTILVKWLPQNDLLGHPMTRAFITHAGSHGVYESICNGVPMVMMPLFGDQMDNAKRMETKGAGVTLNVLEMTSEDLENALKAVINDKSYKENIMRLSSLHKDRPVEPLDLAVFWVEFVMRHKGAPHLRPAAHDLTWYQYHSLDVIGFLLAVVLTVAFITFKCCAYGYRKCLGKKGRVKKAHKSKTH

[12] = clinical; settings: human, in vivo
[13] = clinical; settings: human, in vivo; remark: listed apart in the source
[14] = biological target: T4, UDP-glucuronosyltransferase 1A1 (Homo sapiens, UniProt P22309); assay: Activity of human UGT1A1 expressed in insect cells assessed as reduction in compound level after 30 mins; format: ADME; settings: 0.5 h
T4 sequence (P22309 whole entry): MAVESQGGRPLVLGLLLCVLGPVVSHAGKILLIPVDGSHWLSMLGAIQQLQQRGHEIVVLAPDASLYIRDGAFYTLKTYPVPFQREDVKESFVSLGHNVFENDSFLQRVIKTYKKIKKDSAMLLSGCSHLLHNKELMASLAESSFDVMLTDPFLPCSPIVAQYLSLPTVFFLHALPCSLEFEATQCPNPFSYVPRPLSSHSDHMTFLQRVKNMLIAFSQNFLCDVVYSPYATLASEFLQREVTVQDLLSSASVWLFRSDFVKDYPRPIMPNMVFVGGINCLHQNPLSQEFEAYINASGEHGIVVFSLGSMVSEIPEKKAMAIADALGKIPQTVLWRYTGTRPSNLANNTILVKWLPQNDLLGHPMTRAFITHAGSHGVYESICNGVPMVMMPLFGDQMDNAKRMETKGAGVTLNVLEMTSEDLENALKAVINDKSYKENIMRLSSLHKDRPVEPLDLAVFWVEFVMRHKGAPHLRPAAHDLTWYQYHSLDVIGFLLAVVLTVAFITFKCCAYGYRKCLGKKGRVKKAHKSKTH

[15] = biological target: T5, UDP-glucuronosyltransferase 1A3 (Homo sapiens, UniProt P35503); assay: Activity of human UGT1A3 expressed in insect cells assessed as reduction in compound level after 30 mins; format: ADME; settings: 0.5 h
T5 sequence (P35503 whole entry): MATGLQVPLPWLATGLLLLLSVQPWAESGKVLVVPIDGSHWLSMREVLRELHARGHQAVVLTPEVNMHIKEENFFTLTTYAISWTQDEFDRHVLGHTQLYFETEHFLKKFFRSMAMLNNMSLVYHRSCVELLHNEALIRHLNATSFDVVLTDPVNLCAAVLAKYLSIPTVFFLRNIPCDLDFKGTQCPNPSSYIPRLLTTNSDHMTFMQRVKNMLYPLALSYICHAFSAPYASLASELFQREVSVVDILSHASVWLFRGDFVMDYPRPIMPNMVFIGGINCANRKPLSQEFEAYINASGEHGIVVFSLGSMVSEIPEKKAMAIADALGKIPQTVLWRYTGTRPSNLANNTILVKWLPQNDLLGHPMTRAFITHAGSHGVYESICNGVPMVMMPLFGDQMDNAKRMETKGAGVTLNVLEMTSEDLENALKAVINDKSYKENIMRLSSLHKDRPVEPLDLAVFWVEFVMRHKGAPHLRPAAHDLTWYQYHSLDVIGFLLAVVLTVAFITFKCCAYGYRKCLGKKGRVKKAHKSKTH

[16] = clinical; settings: human, in vivo, po
[17] = Drug absorption in po dosed human; format: ADME, organism-based; settings: in vivo, read-out: Drug absorption
[18] = Oral bioavailability in human; format: ADME, organism-based; settings: in vivo
[19] = biological target: T6, UDP-glucuronosyltransferase 2B7 (Homo sapiens, UniProt P16662); assay: Activity of human UGT2B7 expressed in insect cells assessed as reduction in compound level after 30 mins; format: ADME; settings: 0.5 h
T6 sequence (P16662 whole entry): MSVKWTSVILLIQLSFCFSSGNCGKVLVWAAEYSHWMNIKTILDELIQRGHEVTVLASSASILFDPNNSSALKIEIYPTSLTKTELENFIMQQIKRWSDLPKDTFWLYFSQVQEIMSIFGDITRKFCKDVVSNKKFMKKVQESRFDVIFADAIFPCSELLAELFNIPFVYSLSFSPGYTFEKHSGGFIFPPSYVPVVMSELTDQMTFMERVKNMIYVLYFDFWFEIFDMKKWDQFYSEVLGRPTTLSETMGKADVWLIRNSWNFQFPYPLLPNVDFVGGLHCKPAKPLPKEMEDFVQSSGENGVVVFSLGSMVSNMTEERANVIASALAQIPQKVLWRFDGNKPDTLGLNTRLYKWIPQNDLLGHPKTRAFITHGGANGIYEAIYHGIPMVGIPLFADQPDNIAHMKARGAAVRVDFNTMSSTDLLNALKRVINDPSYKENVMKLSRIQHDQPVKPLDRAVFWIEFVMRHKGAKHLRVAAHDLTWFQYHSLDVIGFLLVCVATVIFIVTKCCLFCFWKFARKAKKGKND

SMILES | blood plasma ratio [1] | microsomal CLint ([2]; intestinal microsomes) [µL/min/mg] | Papp [3] [×10⁻⁶ cm/s] | CL free [4] [µL/min/mg] | fraction unbound ([5]; intestinal microsomes) | fraction unbound ([5]; microsomes) | Drug metabolism [11] | further results
CCN(CC)C(=O)/C(C#N)=C/c1cc(O)c(O)c([N+](=O)[O-])c1 [ENTACAPONE] | 0.59 | 27 | 4.1 | 27 | 1 |  |  | 
Cc1ncc2n1-c1ccc(Cl)cc1C(c1ccccc1F)=NC2 [MIDAZOLAM] |  |  |  |  |  |  |  | microsomal CLint ([6]; microsomes): 153 µL/min/mg
CCCc1nc2c(C)cc(-c3nc4ccccc4n3C)cc2n1Cc1ccc(-c2ccccc2C(=O)O)cc1 | 0.67 | 20 | > 30 | 21.7 |  | 0.92 |  | 
O=C(c1ccc(OCCN2CCCCC2)cc1)c1c(-c2ccc(O)cc2)sc2cc(O)ccc12 [RALOXIFENE] |  |  | 3 | 2224 | 0.98 |  |  | Drug metabolism [7]: metabolite_detected; CL ([2]; microsomes): 2180 µL/min/mg; microsomal CLint ([6]; intestinal microsomes): 8.9 µL/min/mg; Drug metabolism [8]: metabolite_detected; fraction unbound [9]: 0.43; CL free [10]: 20.7 µL/min/mg
COc1ccc2c(c1)c(CC(=O)O)c(C)n2C(=O)c1ccc(Cl)cc1 [INDOMETHACIN] | 0.55 | 4.2 | 22 | 5.2 |  | 0.8 | metabolite_detected | clearance [12]: 1.4 mL/min/kg; CL renal [13]: 0.21 mL/min/kg
Cc1ccc(C(=O)c2cc(O)c(O)c([N+](=O)[O-])c2)cc1 [TOLCAPONE] | 0.61 | 40 | 18 | 103 | 0.39 |  | metabolite_detected | 
O=c1c(O)c(-c2ccc(O)c(O)c2)oc2cc(O)cc(O)c12 [QUERCETIN] | 1 | 4620 | < 1.5 | 5133 | 0.9 |  |  | Drug metabolism [14]: metabolite_detected; Drug metabolism [15]: metabolite_detected; CL/F [16]: 8330 mL/min/kg; Fa [17]: 65%
Cc1c(-c2ccc(O)cc2)n(Cc2ccc(OCCN3CCCCCC3)cc2)c2ccc(O)cc12 [BAZEDOXIFENE] |  |  | 20 |  |  |  |  | Drug metabolism [7]: metabolite_detected; Drug metabolism [14]: metabolite_detected; Drug metabolism [8]: metabolite_detected; bioavailability [18]: 6.2%
O=C(O)Cc1ccccc1Nc1c(Cl)cccc1Cl [DICLOFENAC] |  |  |  | 62.7 |  | 0.94 |  | Drug metabolism [19]: metabolite_detected; microsomal CLint ([2]; microsomes): 59 µL/min/mg; CL ([6]; microsomes): metabolite_not_detected; CL free [10]: metabolite_not_detected
CCc1cccc2c3c([nH]c12)C(CC)(CC(=O)O)OCC3 (configuration not stated) [ETODOLAC] | 0.55 | 6.2 | 23 | 5.7 |  |  | metabolite_detected | clearance [12]: 0.66 mL/min/kg; CL/F [16]: 0.82 mL/min/kg; bioavailability [18]: 80%
